In patent US20150025077A1 (COYOTE PHARMACEUTICALS, INC., priority 2012, published 2015):
Values joined by “and” are separate entries in the source; they are usually repeats but may differ in a detail not shown here. Equal values may be shown once. Read-outs that look alike come from different tables or passages of the source.

How the values were obtained:
[1] = test system: HSP90; assay: HSP90 expression in neuro2A cells, western blot; type: cell-based, mouse; settings: 48 hours, GGTI-298
Protocol: Differentiation was induced and cells incubated with geranylgeranyl transferase I inhibitor, GGTI-298. Cells were harvested and lysates were prepared and analyzed by western blot for HSP70 and HSP90. Western signals in the absence of the compounds were normalized as 1.00.

[2] = test system: HSP70; settings: rat eyes, single dose 12 mg/kg
[3] = test system: HSP90; assay: HSP90 gene expression in rat brain tissue, qRT-PCR; type: in vivo; settings: 12 mg/kg oral
Protocol: […] Expression of selected HSPs was detected using qRT-PCR with expression of the GAPDH gene used as the control. To represent the effect of CNS-102 on HSP expression, mean fold change is calculated as CNS-102 treated/PBS treated for each HSP at each time point.

[4] = test system: SOD1 mice; assay: CatWalk gait analysis in SOD1 mice; type: in vivo, mouse; parameters: Hind stride length, Mean/average: unit not given beside the values
Description: Prior to onset, there was little to no difference between the transgenic and wildtype groups. Transgenic animals tended to rely more on front paws for movement as weakness and paralysis in the hind paws progressed. This began to show around timepoint P100, coinciding with the expected onset of disease. This impairment was seen through changes in front and hind paw step cycle, print area, mean intensity, and base of support.

[5] = Pharmacokinetics of CNS-102 in rats (IV, oral); type: in vivo; settings: rat
Protocol: Rats were administered a single dose of CNS-102 either intravenously (12 mg/kg) or orally (24 mg/kg), and blood samples were taken to measure the average plasma concentrations of CNS-102 over time.
The formulation for this study includes the following: […]
Formulations: (Dose: 24 mg/kg; Study Date: 4-16-2012)

[6] = test system: Rat primary motor neurons; assay: Axon extension of rat primary motor neurons; type: cell-based; settings: 72 hrs; read-out: EC50 (cells extending axons)
Protocol: Rat primary motor neurons were isolated from embryonic spinal cords in accordance with the method of Henderson et al.; J Cohen and G P Wilkin (ed.), Neural Cell Culture, (1995) p69-81 which is herein incorporated by reference in its entirety. Briefly, spinal cords were dissected from day 15 embryo (E15) and incubated in a trypsin solution, and followed by DNase treatment to release spinal cord cells from tissue fragments. The cell suspension was centrifuged to remove tissue fragments. Then motor neurons were enriched by density gradient centrifugation.
Motor neurons were cultured in serum-free neurobasal medium containing insulin, forskolin, 3-isobutyl-1-methylxanthine, neurotrophic factors, Bovine serum albumin, selenium, transferrin, putrescine, progesterone and B27 supplement in tissue culture plate coated with poly-ornithine and laminin.
Rat primary motor neurons were prepared and cultured as described in Example 13. […] The cells extending axons were counted in five different fields for each treatment after 72 hrs. Percentage of positive cells relative to total cells in the same magnification field was calculated and the results were expressed as means+/−standard deviations, n=5.

[7] = test system: RhoA; assay: Active RhoA to total RhoA in Neuro2A cells (G-LISA, ELISA); type: cell-based, mouse; settings: 48 hrs, active RhoA to total RhoA as percentage of DMSO treatments
Protocol: Mouse neuroblastoma Neuro2A cells were cultured in DMEM supplemented with 10% FBS for 24 hrs. […] Cell lysates were quantified and subjected either to active RhoA assay using G-LISA RhoA activation Assay Biochem Kit (Cytoskeleton Inc), or to total RhoA assay using Total RhoA ELISA Kit (Cytoskeleton Inc). The results were calculated as ratio of active RhoA to total RhoA and averaged from 3 biological repeats of one experiment with background subtraction. The data was presented as percentage of DMSO treatments.

[8] = 12 mg/kg IV, individual rats 1-3, 12 mg/kg
[9] = 12 mg/kg IV, individual rats 2, 3, 12 mg/kg
[10] = 24 mg/kg oral vs 12 mg/kg IV, average
[11] = 24 mg/kg oral, individual rats 4-6, 24 mg/kg

CC(=O)CC/C=C(\C)CC/C=C(\C)CC/C=C(\C)CCC=C(C)C [CNS-102]
HSP90 western signal (absence of compounds = 1.00) ([1]; 100 nM): 3.29 | HSP90 western signal (absence of compounds = 1.00) ([1]; 1 μM): 1.74 | HSP90 western signal (absence of compounds = 1.00) ([1]; 10 μM): 1.21 | HSP70 Expression (Fold change vs vehicle control), mean ± SD ([2]; 24 hr): 1.47 ± 0.36 | HSP70 Expression (Fold change vs vehicle control), mean ± SD ([2]; 48 hr): 1.33 ± 0.10 | HSP70 Expression (Fold change vs vehicle control), mean ± SD ([2]; 72 hr): 1.40 ± 0.11 | HSP90 mean fold change (CNS-102 treated/PBS treated), mean ± SD ([3]; 24 h): 1.32 ± 0.95 | HSP90 mean fold change (CNS-102 treated/PBS treated), mean ± SD ([3]; 48 h): 1.16 ± 0.55 | HSP90 mean fold change (CNS-102 treated/PBS treated), mean ± SD ([3]; 72 h): 2.59 ± 1.27 | HSP90 mean fold change (CNS-102 treated/PBS treated), mean ± SD ([3]; 96 h): 1.68 ± 0.72 | Run Duration, CNS-102 - vehicle difference of averages ([4]; P120): −1.68 | Stride Length, CNS-102 - vehicle difference of averages ([4]; P120): 1.46 | Swing Speed, CNS-102 - vehicle difference of averages ([4]; P120): 14.58 | Run Duration, Mean/average ([4]; P-42, SOD1/Vehicle 1.484746201): 1.685 | Hind stride length, Mean/average ([4]; P-42, SOD1/Vehicle 6.359471205): 6.082 | Swing speed, Mean/average ([4]; P-42, SOD1/Vehicle 45.8515272): 41.18 | Run Duration, Mean/average ([4]; P-124 (+/−) 3, SOD1/Vehicle 3.461605345): 1.976 | Hind stride length, Mean/average ([4]; P-124 (+/−) 3, SOD1/Vehicle 3.607909383): 5.476 | Swing speed, Mean/average ([4]; P-124 (+/−) 3, SOD1/Vehicle 23.93413455): 35.63 | Plasma Concentration of CNS-102 ([5]; 12 mg/kg IV, 5 min, average): 2402.5 ng/mL | Plasma Concentration of CNS-102 ([5]; 12 mg/kg IV, 5 min, individual rats 1-3, 12 mg/kg): 1268.2 ng/mL and 4087.5 ng/mL | Plasma Concentration of CNS-102 ([5]; 12 mg/kg IV, 10 min, average): 869.6 ng/mL | Plasma Concentration of CNS-102 ([5]; 12 mg/kg IV, 10 min, individual rats 1-3, 12 mg/kg): 227.0 ng/mL and 929.0 ng/mL | Plasma Concentration of CNS-102 ([5]; 12 mg/kg IV, 20 min, average): 518.9 ng/mL | Plasma Concentration of CNS-102 ([5]; 12 mg/kg IV, 20 min, individual rats 1-3, BQL set to zero, 12 mg/kg): 0.00 ng/mL and 652.7 ng/mL | Plasma Concentration of CNS-102 ([5]; 12 mg/kg IV, 30 min, average): 334.7 ng/mL | Plasma Concentration of CNS-102 ([5]; 12 mg/kg IV, 30 min, individual rats 1-3, BQL set to zero): 0.00 ng/mL | Plasma Concentration of CNS-102 ([5]; 12 mg/kg IV, 60 min, average): 325.8 ng/mL | Plasma Concentration of CNS-102 ([5]; 12 mg/kg IV, 60 min, individual rats 1-3, BQL set to zero): 0.00 ng/mL | Plasma Concentration of CNS-102 ([5]; 12 mg/kg IV, 120 min, average): 150.2 ng/mL | Plasma Concentration of CNS-102 ([5]; 12 mg/kg IV, 120 min, individual rats 1-3, BQL set to zero): 0.00 ng/mL | Plasma Concentration of CNS-102 ([5]; 12 mg/kg IV, 240 min, average): 209.0 ng/mL | Plasma Concentration of CNS-102 ([5]; 12 mg/kg IV, 240 min, individual rats 1-3, BQL set to zero): 0.00 ng/mL | Plasma Concentration of CNS-102 ([5]; 12 mg/kg IV, 480 min, average): 77.4 ng/mL | Plasma Concentration of CNS-102 ([5]; 12 mg/kg IV, 480 min, individual rats 1-3, BQL set to zero): 0.00 ng/mL | Plasma Concentration of CNS-102 ([5]; 12 mg/kg IV, 720 min, average): 0.0 ng/mL | Plasma Concentration of CNS-102 ([5]; 12 mg/kg IV, 720 min, individual rats 1-3, BQL set to zero): 0.00 ng/mL | AUC(0-inf) ([5]; 12 mg/kg IV, average): 208728 ng·min/mL | AUC(0-last) ([5]; 12 mg/kg IV, average): 115146 ng·min/mL | C0 ([5]; 12 mg/kg IV, average): 9144.0 ng/mL | Vss ([5]; 12 mg/kg IV, average): 9.796 L/kg | Vz ([5]; 12 mg/kg IV, average): 12.039 L/kg | t1/2 ([5]; 12 mg/kg IV, average): 2.45 h | AUC(0-last) [5, 8]: 19934.3 ng·min/mL and 95802.8 ng·min/mL and 229701.4 ng·min/mL | C0 [5, 8]: 7086.8 ng/mL and 17984.5 ng/mL and 2360.7 ng/mL | AUC(0-inf) [5, 9]: 115420.9 ng·min/mL and 302035.6 ng·min/mL | Vss [5, 9]: 6.0519 L/kg and 13.5396 L/kg | Vz [5, 9]: 11.6998 L/kg and 12.3785 L/kg | t1/2 [5, 9]: 1.3 h and 3.6 h | F (0-inf) [5, 10]: 49.1% | F (0-last) [5, 10]: 82.1% | Plasma Concentration of CNS-102 ([5]; 24 mg/kg oral, 10 min, average): 0.0 ng/mL | Plasma Concentration of CNS-102 ([5]; 24 mg/kg oral, 10 min, individual rats 4-6, BQL set to zero): 0 ng/mL | Plasma Concentration of CNS-102 ([5]; 24 mg/kg oral, 30 min, average): 193.3 ng/mL | Plasma Concentration of CNS-102 ([5]; 24 mg/kg oral, 30 min, individual rats 4-6, 24 mg/kg): 193.8 ng/mL and 224.3 ng/mL and 161.8 ng/mL | Plasma Concentration of CNS-102 ([5]; 24 mg/kg oral, 60 min, average): 576.8 ng/mL | Plasma Concentration of CNS-102 ([5]; 24 mg/kg oral, 60 min, individual rats 4-6, 24 mg/kg): 331.9 ng/mL and 500.2 ng/mL | Plasma Concentration of CNS-102 ([5]; 24 mg/kg oral, 120 min, average): 176.8 ng/mL | Plasma Concentration of CNS-102 ([5]; 24 mg/kg oral, 120 min, individual rats 4-6): 147.6 ng/mL | Plasma Concentration of CNS-102 ([5]; 24 mg/kg oral, 240 min, average): 298.0 ng/mL | Plasma Concentration of CNS-102 ([5]; 24 mg/kg oral, 240 min, individual rats 4-6, BQL set to zero): 0 ng/mL | Plasma Concentration of CNS-102 ([5]; 24 mg/kg oral, 480 min, average): 489.7 ng/mL | Plasma Concentration of CNS-102 ([5]; 24 mg/kg oral, 720 min, average): 47.2 ng/mL | Plasma Concentration of CNS-102 ([5]; 24 mg/kg oral, 720 min, individual rats 4-6, BQL set to zero): 0 ng/mL | Plasma Concentration of CNS-102 ([5]; 24 mg/kg oral, 1440 min, average): 0.0 ng/mL | Plasma Concentration of CNS-102 ([5]; 24 mg/kg oral, 1440 min, individual rats 4-6, BQL set to zero): 0 ng/mL | AUC(0-inf) ([5]; 24 mg/kg oral, average): 204878 ng·min/mL | AUC(0-last) ([5]; 24 mg/kg oral, average): 189114 ng·min/mL | Cmax ([5]; 24 mg/kg oral, average): 752.9 ng/mL | Tmax ([5]; 24 mg/kg oral, average): 340 min | t1/2 ([5]; 24 mg/kg oral, average): 1.72 h | AUC(0-inf) [5, 11]: 234242 ng·min/mL and 157666 ng·min/mL and 222724 ng·min/mL | AUC(0-last) [5, 11]: 214144 ng·min/mL and 130474 ng·min/mL and 222724 ng·min/mL | Cmax [5, 11]: 768 ng/mL and 898.2 ng/mL and 592.5 ng/mL | F (0-inf) [5, 11]: 56.1% and 37.8% and 53.4% | F (0-last) [5, 11]: 93.0% and 56.7% and 96.7% | Tmax [5, 11]: 480 min (2×) and 60 min | t1/2 [5, 11]: 1.64 h and 2.895 h and 0.613 h | EC50 [6]: 920 pM | % Relative RhoGTPase Activity ([7]; CNS-102 10 nM): 103.6% | % Relative RhoGTPase Activity ([7]; CNS-102 100 nM): 120.1%
